Assay results taken from patent US11697798B2, “Enhanced differentiation and maturation of pluripotent stem cell-derived myogenic cells” (Regents of the University of Minnesota, priority 2017, dated 2023).

Key:
Type in all cases: cell-based, human
[1] = test system: myotubes derived from hESC-1, hiPSC-1 and hiPSC-2; assay: Small molecule library screening (Tocriscreen Stem Cell Toolbox), MHC/DAPI area ratio; conditions: terminal differentiation
Method: After 24 hours, cells were switched to MM with 1 μg/ml Doxycyline and incubated at 37° C. for 2 days. 1/10th of EBs were then plated on gelatin coated T-75 flasks in MM with 1 μg/ml dox and 5 ng/ml human basic fibroblast growth factor (bFGF). After 4 days, cells were dissociated with 0.25% trypsin-EDTA, FACS sorted for GFP to derive myogenic progenitors which were plated at a density of 2 million/T-75 flask in MM with 1 μg/ml dox and 5 ng/ml bFGF. Once the cells reached 90% confluency, myogenic progenitors were dissociated with 0.25% trypsin-EDTA and passaged at a ratio of 1:6 to 1:8. To induce terminal differentiation, myogenic progenitors at P3-4 were plated at a density of 75,000 cells/24-well plate and allowed to grow confluent for 3 days. The medium was then switched to low nutrient differentiation medium (DM) consisting of DMEM-KO supplemented with 20% KOSR, 1% NEAA, 1% glutamax and 1% penicillin-streptomycin and incubated for five days to derive myotubes. Transplantation Experiment
Small molecule library screening was done using the tocriscreen stem cell toolbox kit (tocris) which consisted of 80 compounds. Myogenic progenitors at passage P3 or P4 were seeded at 12,000 cells/well in 96-well plates (triplicates) and incubated at 37° C. for 3 days to reach 100% confluency. After 3 days, the cells were switched to DM supplemented with 10 μM of the compounds from the library or with DMSO. Cells were incubated in this differentiation medium for 5 days to derive myotubes. Cells were then fixed with 4% PFA and stained for MHC and DAPI. The stained plates were imaged using cytation plate reader and 49 pictures were taken per well to cover most of the area. The images were stitched together and the ratio of area of MHC/DAPI staining was quantified using Image J and normalized to that of DMSO treated cells. […] Different combinations were made with selected compounds and their effect on differentiation was tested and quantified. […]

[2] = test system: hiPS cell-derived myogenic progenitors; assay: Immunofluorescence staining for MHC and MYOG after terminal differentiation; conditions: for Myogenin (MYOG) immunofluorescence: clustering of myogenic nuclei / Myosin heavy chain (MHC) immunofluorescence: fusion, myotube thickness: KOSR-based differentiation medium; for Myosin heavy chain (MHC) immunofluorescence: fusion, myotube thickness: versus untreated control
Method: (§1) Human induced Pluripotent Stem Cells (hiPSC, PLZ) or Embryonic Stem Cells (hESC, H9) were transduced with the lentiviral constructs pSAM2-PAX7-ires-GFP and pFUGW-rtTA to generate doxycycline-inducible PAX7 (iPAX7) PS-cells as previously reported (Darabi, 2012). iPAX7-PS cells were cultured on matrigel-coated flasks using mTeSR1 medium (Stem Cell Technology). Cells were differentiated to myogenic progenitors as previously described (Darabi and Perlingeiro, 2016). Briefly, iPAX7-PS cells were detached with Accumax and 1×10^6 cells were plated in 6 cm non-adherent Petri dishes with mTeSR1 supplemented with 10 uM Y-27632 (ROCK inhibitor) and incubated at 37° C., 5% CO2 on a shaker at 60 RPM for 48 h. Then, medium was replaced with EB Myogenic (EBM) Medium supplemented with 10 uM […] (GSK3-β inhibitor) and 10 uM Y-27632. Three days later supplements were removed by changing to fresh medium. At day 7, EBs were plated on gelatin-coated flasks with EBM medium+10 ng/ml human basic FGF (bFGF) and three days later 1 ug/ml of doxycycline was added to the medium to induce PAX7 expression. Cells were harvested by trypsinization at day 14 and subsequently FACS sorted for GFP(+) expression. From this point, cells are considered as myogenic progenitors and cultured on gelatin-coated flasks using EBM medium+10 ng/ml bFGF+1 ug/ml Dox.
(§2) For terminal differentiation, myogenic progenitors at P3-P5 were plated on gelatin-coated dishes with EBM medium+10 ng/ml bFGF+1 ug/ml Dox. Upon reaching 100% confluency, medium was removed and replaced with knockout serum replacement (KOSR) or horse serum based terminal differentiation medium (TDM) supplemented with 10 uM DAPT, 10 uM BMS-906024.5 days after terminal differentiation, cells were fixed or collected for RNA analysis.
After 5 days of terminal differentiation, cells were washed with PBS and fixed with 4% PFA/PBS for 10 min. Then, cells were permeabilized with 0.3% Triton X-100/PBS for 15 min and blocked with 3% BSA/PBS for 20 min. Cells were incubated with a primary antibody that recognizes all MHC isoforms (MF-20, Developmental Studies Hybridoma Bank) overnight at 4° C. The next day, cells were incubated with an Alexa-555 secondary antibody supplemented with DAPI for 1 h at RT. Cells were analyzed by epifluorescence microscopy.

[3] = test system: hES (H9) and iPS (PLZ) cell-derived myogenic progenitors; assay: RT-qPCR of myotubes differentiated from myogenic progenitors with gamma secretase inhibitors; conditions: for mRNA expression level of MHC3 compared to non-treated cells / mRNA expression level of Myogenin compared to non-treated cells: 10 uM, KOSR- or horse serum-based media, 5 days at 37° C.
Method: as §1, §2
Differentiated myotubes (5d) were collected with TRIzol (Thermo Fisher Scientific) and RNA was purified using the Direct-zol RNA MiniPrep Plus (Zymo Research) following manufacturer's instructions. cDNA was obtained by RT-PCR using SuperScript VILO (Invitrogen) and qPCR was performed by using the Premix Ex Taq ROX plus (Takara) and TaMan probes (Thermo Fisher Scientific) specific to the genes of interest. qPCR was done with a QuantStudio 6 Flex Real-Time PCR System (Thermo Fisher Scientific). Data was normalized to GAPDH expression.

[4] = test system: hiPS cell-derived myogenic progenitors; assay: Western blot for MHC8 protein in terminally differentiated myotubes; conditions: horse serum-based differentiation medium, TUBB loading control
Method: as §1, with “Dox. […]” for “Dox.”

[5] = horse serum-based differentiation medium, hiPS

Compound	myotube differentiation efficiency [1]	Myogenin (MYOG) immunofluorescence: clustering of myogenic nuclei [2]	Myosin heavy chain (MHC) immunofluorescence: fusion, myotube thickness [2]	mRNA expression level of MHC3 compared to non-treated cells [3]	mRNA expression level of Myogenin compared to non-treated cells [3]	neonatal Myosin Heavy Chain (MHC8) protein detection by Western blot [4]	efficiency of differentiation by MHC and MYOG immunofluorescence ([2]; horse serum-based (HS) differentiation medium)	expression level of CAPN3 compared to untreated control [3, 5]	expression level of embryonic myosin heavy chain (MHC3) [3, 5]	expression level of neonatal myosin heavy chain (MHC8) [3, 5]
NC(=O)c1ccc(-c2nc(-c3ccc4c(c3)OCO4)c(-c3ccccn3)[nH]2)cc1 [SB 431542]	promoted higher myotube differentiation efficiency	–	–	–	–	–	–	–	–	–
O=C(NOC[C@H](O)CO)c1ccc(F)c(F)c1Nc1ccc(I)cc1F [PD 0325901]	promoted higher myotube differentiation efficiency	–	–	–	–	–	–	–	–	–
CN1C(=O)[C@@H](NC(=O)[C@H](CCC(F)(F)F)[C@H](CCC(F)(F)F)C(N)=O)N=C(c2ccccc2)c2ccccc21 [BMS-906024]	–	induce clustering of the myogenic nuclei	improve the fusion of the nuclei to give rise to thick myotubes	increased mRNA expression levels	increased mRNA expression levels	–	–	–	–	–
CC(NC(=O)Cc1cc(F)cc(F)c1)C(=O)N[C@H](C(=O)OC(C)(C)C)c1ccccc1 (stereo partly shown) [DAPT]	promoted higher myotube differentiation efficiency	induce clustering of the myogenic nuclei	improve the fusion of the nuclei to give rise to thick myotubes	increased mRNA expression levels	increased mRNA expression levels	can be detected only in the presence of DAPT	improves the efficiency of the differentiation	5 fold	enhances the expression levels	more than 200 fold
